This is an account of results in publication PMC10275983 (Nature Communications, 2023).

Assay [1] concerns SARS-CoV-2. To be noted: combined with ritonavir; initiated within three days of symptom onset; interim results of Phase II-III studies; cited from earlier work. The source says: Small molecule antivirals offer potential advantages over antibody therapeutics. […] During the early months of the pandemic, huge multinational effort was initiated to repurpose already approved antiviral or immunosuppressive drugs. One such drug was remdesivir, a nucleoside analog chain terminator that blocks replication of viral RNA[17].

Assay [2] deals with SARS-CoV-2/human/Liverpool/REMRQ0001/2020. It counts as in vivo.

Regarding `CC(C)(C)[C@H](NC(=O)C(F)(F)F)C(=O)N1C[C@H]2[C@@H]([C@H]1C(=O)N[C@H](C#N)C[C@@H]1CCNC1=O)C2(C)C` [nirmatrelvir], the reduced hospitalization risk in assay [1] is 89%.
As for `CCC(CC)COC(=O)[C@H](C)N[P@](=O)(OC[C@H]1O[C@@](C#N)(c2ccc3c(N)ncnn23)[C@H](O)[C@@H]1O)Oc1ccccc1` [remdesivir], the “inflammatory markers (cytokine and chemokine transcripts) in lung and nasal turbinate” value in assay [2] (K18 hACE2 mice N=4, day 4 post-infection, same dosing, qPCR) is given as “remained substantially elevated”. In assay [2] (mouse, in vivo), the “infectious virus in the lungs (plaque assay on lung homogenate)” value is “only partially decreased viraemia” and the “viral RNA levels in nasal turbinates (qPCR, sub-genomic E gene)” value is “no significant impact”.
